Values of other authors as cited in patent US7847120B2, “Compositions of allosteric hemoglobin modifiers and methods of making the same” (Virginia Commonwealth University Intellectual Property …, priority 2004, dated 2010).

Columns and labels:
tissue oxygenation = conditions: in vivo
[1] = system: EMT6 mouse mammary tumors; conditions: efaproxiral plus oxygen breathing, Rockwell and Kelley 1998
mouse fibrosarcoma tumor = conditions: combination of efaproxiral and radiation relative to radiation alone

In the case of `Cc1cc(C)cc(NC(=O)Cc2ccc(OC(C)(C)C(=O)O)cc2)c1` [efaproxiral, 2-[4-((((3,5-dimethylphenyl)amino)carbonyl)methyl)phenoxy]-2-methyl propionic acid], the tissue oxygenation (tissue oxygenation) is listed as “enhance tissue oxygenation in vivo”, the “effect of radiation in tumors” value ([1]; EMT6 mouse mammary tumors) is listed as “Enhancement of the effect of radiation was observed” and the “radiation effects in normal tissues” value ([1]; normal tissues) is listed as “absence of enhanced radiation effects”. For the same compound, the tumor growth (mouse fibrosarcoma tumor) was “reduced”.
